Results from US11407738B2 (Achillion Pharmaceuticals, Inc., priority 2015, dated 2022).

Target: Human Factor D (Homo sapiens (Human), UniProt P00746)
Assay: Human Factor D assay
Format: biochemical
Conditions: Factor D inhibition, substrate Z-L-Lys-SBzl
In short: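 Serum-purified human factor D (80 nM final) preincubated 5 min at room temperature with test compound in 50 mM Tris, 1M NaCl, pH 7.5. Z-L-Lys-SBzl substrate and DTNB then added, each at 100 μM final. IC50 from nonlinear regression of reaction rate against compound concentration.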

Human Factor D, sequence (P00746 26-253): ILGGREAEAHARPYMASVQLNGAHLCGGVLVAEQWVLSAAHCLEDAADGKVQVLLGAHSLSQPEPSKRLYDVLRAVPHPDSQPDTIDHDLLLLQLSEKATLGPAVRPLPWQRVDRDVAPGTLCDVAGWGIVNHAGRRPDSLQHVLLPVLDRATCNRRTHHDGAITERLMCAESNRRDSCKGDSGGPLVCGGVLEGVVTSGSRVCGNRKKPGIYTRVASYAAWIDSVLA

With `CC(=O)c1nn(CC(=O)N2CC=CC[C@H]2C(=O)Nc2cccc(C)n2)c2ccc(-c3cnc(C)nc3)cc12` [Compound 569, (S)-1-(2-(3-acetyl-5-(2-methylpyrimidin-5-yl)-1H-indazol-1-yl)acetyl)-N-(6-methylpyridin-2-yl)-1,2,3,6-tetrahydropyridine-2-carboxamide] the IC50 (Table 4) was over 10 µM.

`COC(=O)C[C@H]1CCCN1C(=O)Cn1nc(C(C)=O)c2cc(-c3cnc(C)nc3)ccc21` [Compound 509, (R)-methyl 2-(1-(2-(3-acetyl-5-(2-methylpyrimidin-5-yl)-1H-indazol-1-yl)acetyl)pyrrolidin-2-yl)acetate] showed an IC50 (Table 3) of over 10 µM.

`CC(=O)c1nn(CC(=O)N2C[C@H](F)C[C@H]2C(=O)NC2CCN(c3ccc(C(=O)O)cn3)CC2)c2ccc(-c3cnc(C)nc3)cc12` [Compound 512, 6-(4-((2S,4R)-1-(2-(3-Acetyl-5-(2-methylpyrimidin-5-yl)-1H-indazol-1-yl)acetyl)-4-fluoropyrrolidine-2-carboxamido)piperidin-1-yl)nicotinic Acid] was tested, and the IC50 (Table 3) was 1 to 10 µM.

`CC(=O)c1nn(CC(=O)N2C[C@H](F)C[C@H]2C(=O)OCc2ccc(Br)nc2N)c2ccc(-c3cnc(C)nc3)cc12` [Compound 570, (2S,4R)-(2-amino-6-bromopyridin-3-yl)methyl 1-(2-(3-acetyl-5-(2-methylpyrimidin-5-yl)-1H-indazol-1-yl)acetyl)-4-fluoropyrrolidine-2-carboxylate] was tested, and the IC50 (Table 4) was over 10 µM.

`CC[C@@H](C(=O)Nc1cccc(Br)n1)N(C)C(=O)Cn1nc(C(C)=O)c2cc(-c3cnc(C)nc3)ccc21` [Compound 598, (S)-2-(2-(3-Acetyl-5-(2-methylpyrimidin-5-yl)-1H-indazol-1-yl)-N-methylacetamido)-N-(6-bromopyridin-2-yl)butanamide] gave an IC50 (Table 4) of 1 to 10 µM.
